Source: patent US6908922B2, “Linear cyclic ureas” (Les Laboratoires Servier, priority 1999, dated 2005)

Columns and labels:
Assay type in all cases: cell-based
rat aortic rings = test: Assessment of aortic production of cGMP stimulated by ACh in the presence of LNA (radioimmunoassay); details: compound at 10^−7M, 30-minute incubation; ACh 10^−5M 1 minute; LNA 3×10^−6M; isobutylmethylxanthine 10^−5M
Description: By diffusing to the smooth muscle cells, the NO produced by the endothelial cells activates soluble guanylate cyclase, which brings about an increase in cyclic GMP, which is responsible for relaxation.
The rat aortic rings are prepared as previously. The effects of 30-minute incubation of compounds of the invention at different concentrations are assessed on the production of cGMP stimulated by ACh (10^−5M-1 minute) in the presence of LNA (3×10^−6M). The said experiments are carried out in the presence of isobutylmethylxanthine (10^−5M) in order to avoid degradation of the cGMP by phosphodiesterases. The rings are frozen in liquid nitrogen and maintained at −80° C. until the assay is carried out. The cGMP content is assessed by radioimmunoassay and expressed in relation to the amount of proteins contained in the tissue (assay by the Bradford method).

[1] = system: aortic rings of New Zealand rabbits; test: Protective vascular effects with respect to endothelial dysfunction caused by a system generating O2^− (XO-Hypo), aortic rings; details: compound at 3×10^−8M; rabbit aortic rings; XO 3 mU/ml, Hypo 10^−4M
[2] = system: thoracic aorta rings of a Wistar rat; test: Vascular protective effects with respect to endothelial dysfunction caused by an inhibitor of NOS (ACh relaxation of aortic rings in presence of LNA); details: LNA 3×10^−7M, difference in maximum ACh relaxation with/without product
Description: Under standard in vitro conditions, relaxation of aortic rings caused by acetylcholine (ACh), which relaxation is entirely dependent on the presence of endothelium, is the reflection of the production of NO (stimulated by ACh), which by diffusing to smooth muscle cells brings about arterial relaxation (Nature, 1980, 288, 373). The compounds of the invention were tested in respect of two models involving two different mechanisms implicated in the endothelial dysfunction observed in pathology: • the first model consists of causing inhibition of the relaxation due to ACh by blocking the enzymatic activity (endothelial NOS) responsible for the production of NO; • the second model consists of causing oxidative stress in vitro using an enzymatic system that generates O2^− (xanthine oxidase—XO and hypoxanthine—Hypo).
The thoracic aorta of a Wistar rat (325-375 g), anaesthetised by the intraperitoneal route using pentobarbital sodium (30 mg/kg), is removed and dissected into rings having a length of 3 mm. Each ring is suspended from an isometric tension sensor connected to a recording system and the initial tension applied is 2.5 g. The physiological solution used, which is thermostatically maintained at 37° C. and oxygenated (95% O2+5% CO2), comprises (in mM): NaCl 112.0; KCl 5.0; CaCl2 2.5; KH2PO4 1.0; MgSO4 1.2; NaHCO3 25.0; glucose 11.5; Ca-EDTA 0.016.
After a 90-minute stabilisation period, the preparations are contracted using phenylephrine (PHE 10^−6M) and relaxed by adding 10^−5M of acetylcholine in order to verify the integrity of the endothelial layer. If that is confirmed, the preparations are rinsed and a concentration of the product under test is added to the medium followed by 3×10^−7M of N^G-nitro-L-arginine (LNA). The preparations are again contracted using phenylephrine and, after 30 minutes, the relaxations due to acetylcholine (ACh-10^−8M to 10^−5M) are assessed in the presence of indomethacin (10^−5M).
The relaxation values are expressed as a percentage relative to the maximum contraction caused by PHE. […]

SMILES: O=C(NCCN1CCC(COc2ccccc2)CC1)N1CCc2ccccc21 [Example 35, N-{2-[4-(Phenoxymethyl)-1-piperidyl]ethyl}-1-indolinecarboxamide]
- increase in the production of cGMP stimulated by ACh in the presence of LNA (rat aortic rings): 28.1%
- inhibition of the endothelial dysfunction caused by the XO-Hypo combination [1]: 17%
- inhibition of the endothelial dysfunction caused by LNA ([2]; compound at 3×10^−8M): 26%
- inhibition of the endothelial dysfunction caused by LNA ([2]; compound at 10^−7M): 29%
- inhibition of the endothelial dysfunction caused by LNA ([2]; compound at 10^−8M): 8%
